ChEMBL document CHEMBL5550180, “Enhancing anti-cancer capacity: Novel class I/II HDAC inhibitors modulate EMT, cell cycle, and apoptosis pathways” (Bioorg Med Chem, 2024)
The source made the active and inactive calls.

Experiments:
[1] = tested on: A549; experiment: Induction of cell cycle arrest in human A549 cells assessed as effect on p21 level at 2.5 to 5 uM incubated for 48 hrs by Western blot analysis; assay type: functional, cell-based; settings: dose 2.5-5 µM
[2] = tested on: HT-29; experiment: Inhibition of cell migration in human HT-29 cells assessed as upregulation of E-cadherin level at 1 to 2 uM incubated for 48 hrs by Western blot analysis; assay type: functional, cell-based; settings: dose 1-2 µM
[3] = tested on: HT-29; experiment: Inhibition of cell migration in human HT-29 cells at 0.5 uM measured immediately by wound healing assay (reference value: 100%); values are per cent of control
[4] = target: T1, Histone deacetylase (Homo sapiens) (UniProt Q13547+O15379+Q9UBN7+Q92769+Q9UQL6+Q8WUI4+Q9BY41+Q96DB2+P56524+Q9UKV0+Q969S8); experiment: Inhibition of HDAC in human HT-29 cells assessed as increase in acetyl alpha-tubulin level at 1 to 2 uM incubated for 48 hrs by Western blot analysis; assay type: cell-based; settings: dose 1-2 µM
[5] = tested on: A549; experiment: Induction of apoptosis in human A549 cells assessed as upregulation of p53 expression at 2.5 to 5 uM incubated for 48 hrs by Western blot analysis; assay type: functional, cell-based; settings: dose 2.5-5 µM
[6] = tested on: A549; experiment: Induction of cell cycle arrest in human A549 cells assessed as accumulation at G2/M phase at 2.5 to 5 uM incubated for 24 to 48 hrs by PI-staining based flow cytometric analysis; assay type: functional; settings: dose 2.5-5 µM, time 24-48 hrs
[7] = tested on: A549; experiment: Inhibition of cell migration in human A549 cells at 1.25 uM measured immediately by wound healing assay (reference value: 100%); values are per cent of control
[8] = tested on: HT-29; experiment: cells; assay type: functional, cell-based; settings: Homo sapiens, HT-29, 48 h
Description: Anticancer activity against human HT-29 cells assessed as inhibition of cell growth measured for 48 hrs by MTT assay

[9] = tested on: A549; experiment: Inhibition of cell migration in human A549 cells at 1.25 uM measured at 24 hrs by wound healing assay (reference value: 68.4%); assay type: functional
[10] = Toxicity in zebrafish embryo assessed as formation of spinal curvature at 0.5 to 2.5 uM measured after 96 hrs post fertilization by microscopic analysis; set-up: species or system Danio rerio; settings: in vivo, dose 0.5-2.5 µM
[11] = tested on: HT-29; experiment: Inhibition of cell migration in human HT-29 cells at 0.5 uM measured at 48 hrs by wound healing assay (reference value: 73.2%); values are per cent of control; settings: HT-29, 48 h
[12] = tested on: HT-29; experiment: Inhibition of cell migration in human HT-29 cells assessed as downregulation of slug level at 1 to 2 uM incubated for 48 hrs by Western blot analysis; assay type: functional, cell-based; settings: dose 1-2 µM
[13] = Toxicity in zebrafish embryo assessed as survival rate at 0.5 to 2.5 uM measured after 72 hrs post fertilization; set-up: species or system Danio rerio; settings: in vivo, dose 0.5-2.5 µM
[14] = tested on: HT-29; experiment: Anticancer activity against human HT-29 cells assessed as viable cells by measuring green fluorescence intensity measured for 48 hrs by Calcein AM staining based fluorescent microscopic analysis; assay type: functional, cell-based; settings: dose 1-20 µM
[15] = tested on: A549; experiment: Anticancer activity against human A549 cells assessed as suppression of cell viability at 10 uM incubated for 48 hrs by MTT assay; assay type: functional, cell-based
[16] = tested on: A549; experiment: cells; assay type: functional, cell-based; settings: Homo sapiens, A549, 48 h
Description: Anticancer activity against human A549 cells assessed as inhibition of cell growth measured for 48 hrs by MTT assay

[17] = tested on: A549; experiment: Induction of apoptosis in human A549 cells assessed as increase in PARP level at 2.5 to 5 uM incubated for 48 hrs by Western blot analysis; assay type: functional, cell-based; settings: dose 2.5-5 µM
[18] = tested on: HT-29; experiment: Induction of cell cycle arrest in human HT-29 cells assessed as accumulation at G2/M phase at 2.5 to 5 uM incubated for 24 to 48 hrs by PI-staining based flow cytometric analysis; assay type: functional; settings: dose 2.5-5 µM, time 24-48 hrs
[19] = Toxicity in zebrafish embryo assessed as effect on body length at 0.5 to 2.5 uM measured after 96 hrs post fertilization by microscopic analysis; set-up: species or system Danio rerio; settings: in vivo, dose 0.5-2.5 µM
[20] = target: T1, Histone deacetylase (Homo sapiens); experiment: Inhibition of HDAC in human HT-29 cells assessed as increase in histone acetylation level at 1 to 2 uM incubated for 48 hrs by Western blot analysis; assay type: cell-based; settings: dose 1-2 µM
[21] = target: T1, Histone deacetylase (Homo sapiens); experiment: Inhibition of HDAC in human HT-29 cells incubated for 48 hrs by Western blot analysis; assay type: cell-based; settings: dose 0.1-10 µM
[22] = Toxicity in zebrafish embryo assessed as formation of spinal curvature at 1 to 5 uM measured after 96 hrs post fertilization by microscopic analysis; set-up: species or system Danio rerio; settings: in vivo, dose 1-5 µM
[23] = Toxicity in zebrafish embryo assessed as yolk sac edema at 0.5 to 2.5 uM measured after 96 hrs post fertilization by microscopic analysis; set-up: species or system Danio rerio; settings: in vivo, dose 0.5-2.5 µM
[24] = target: T1, Histone deacetylase (Homo sapiens); experiment: Inhibition of HDAC in human A549 cells incubated for 48 hrs by Western blot analysis; assay type: cell-based; settings: dose 0.1-10 µM
[25] = tested on: HT-29; experiment: Inhibition of cell migration in human HT-29 cells assessed as downregulation of vimentin level at 1 to 2 uM incubated for 48 hrs by Western blot analysis; assay type: functional, cell-based; settings: dose 1-2 µM
[26] = tested on: A549; experiment: Inhibition of cell migration in human A549 cells at 1.25 uM measured at 48 hrs by wound healing assay (reference value: 42.3%); values are per cent of control; settings: A549, 48 h
[27] = tested on: A549; experiment: Induction of cell cycle arrest in human A549 cells assessed as effect on cyclin B1 level at 2.5 to 5 uM incubated for 48 hrs by Western blot analysis; assay type: functional, cell-based; settings: dose 2.5-5 µM
[28] = tested on: HT-29; experiment: Anticancer activity against human HT-29 cells assessed as suppression of cell viability at 10 uM incubated for 48 hrs by MTT assay; assay type: functional, cell-based
[29] = tested on: HT-29; experiment: Inhibition of colony formation in human HT-29 cells at 50 to 100 nM measured for 10 days by crystal violet staining based analysis; assay type: functional, cell-based; settings: dose 50-100 nM, time 10.0 day
[30] = tested on: A549; experiment: Anticancer activity against human A549 cells cultured as 3D spheroids assessed as suppression of cell growth at 10 uM incubated for 48 hrs by celltiter-glo luminescent assay; assay type: functional, cell-based
[31] = tested on: HT-29; experiment: Inhibition of cell migration in human HT-29 cells at 0.5 uM measured at 24 hrs by wound healing assay (reference value: 85.7%); values are per cent of control; settings: HT-29, 24 h
[32] = tested on: A549; experiment: Induction of apoptosis in human A549 cells assessed as increase in caspase 3 level at 2.5 to 5 uM incubated for 48 hrs by Western blot analysis; assay type: functional, cell-based; settings: dose 2.5-5 µM
[33] = tested on: A549; experiment: Inhibition of colony formation in human A549 cells at 125 to 250 nM measured for 10 days by crystal violet staining based analysis; assay type: functional, cell-based; settings: dose 125-250 nM, time 10.0 day
[34] = tested on: NCI-H1299; experiment: Anticancer activity against human NCI-H1299 cells assessed as reduction in cell viability at 10 to 40 uM incubated for 48 hrs by MTT assay; assay type: functional, cell-based; settings: dose 10-40 µM
[35] = Toxicity in zebrafish embryo assessed as hatching rate at 0.5 to 2.5 uM measured after 72 hrs post fertilization by microscopic analysis; set-up: species or system Danio rerio; settings: in vivo, dose 0.5-2.5 µM
[36] = Toxicity in zebrafish embryo assessed as formation of scoliosis at 0.5 to 2.5 uM measured after 96 hrs post fertilization by microscopic analysis; set-up: species or system Danio rerio; settings: in vivo, dose 0.5-2.5 µM
[37] = tested on: A549; experiment: Anticancer activity against human A549 cells assessed as viable cells by measuring green fluorescence intensity measured for 48 hrs by Calcein AM staining based fluorescent microscopic analysis; assay type: functional, cell-based; settings: dose 1-20 µM
[38] = tested on: A549; experiment: Induction of cell cycle arrest in human A549 cells assessed as accumulation at sub G1 at 2.5 to 5 uM incubated for 24 to 48 hrs by PI-staining based flow cytometric analysis; assay type: functional; settings: dose 2.5-5 µM, time 24-48 hrs
[39] = Toxicity in zebrafish embryo at […] measured after 96 hrs post fertilization; set-up: species or system Danio rerio; settings: in vivo

COc1ccc(S(=O)(=O)n2cc(Cc3ccc(C(=O)Nc4ccccc4N)cc3)c3ccccc32)cc1
2.52 µM: IC50 [16]
Non-Toxic: Activity [10] | Activity [19] | Activity [22] | Activity [23] | Activity [36]
active: Activity [1] | inhibition [2] | inhibition [4] | Activity [5] | Activity [6] | inhibition [12] | Activity [14] Dose-Dependent Effect | Activity [15] | Activity [17] | Activity [18] | inhibition [20] | inhibition [21] | inhibition [24] | inhibition [25] | Activity [27] | Activity [28] | inhibition [29] | Activity [30] | Activity [32] | inhibition [33] | Activity [34] | Activity [37] Dose-Dependent Effect | Activity [38]
~100%: survival at 72 h, up to 2.5 µM [13]
90.1%: wound area remaining at 0.5 µM [11]
77.4%: inhibition at 1.25 µM [9]
0.92 µM: IC50 [8]
93.8%: wound area remaining at 0.5 µM [31]
100%: wound area remaining at 0.5 µM [3] | wound area remaining at 1.25 µM [7] | Activity [35]
53.3%: wound area remaining at 1.25 µM [26]

NC(=O)NO [HYDROXYUREA]
Toxic: Activity [39]
